Consider 17 compounds from ChEMBL document CHEMBL4376833, “Influence of Non-natural Cationic Amino Acids on the Biological Activity Profile of Innate Defense Regulator Peptides” (J Med Chem, 2019).

In assay [1] the test system is Staphylococcus aureus. Briefly: Antibiofilm activity against methicillin-resistant Staphylococcus aureus assessed as inhibition of biofilm formation by measuring residual biofilm growth incubated for overnight at 10-fold dilution by crystal violet staining based microtiter plate assay relative to control. The format is functional.
Assay [2] concerns Staphylococcus aureus. Briefly: Antibiofilm activity against methicillin-resistant Staphylococcus aureus assessed as inhibition of biofilm formation incubated for overnight by crystal violet staining based microtiter plate assay. The format is functional, organism-based.
For assay [3], the system named is Staphylococcus aureus. In words: Antibacterial activity against methicillin-resistant Staphylococcus aureus assessed as alteration in bacterial growth incubated for overnight by microtiter plate based spectrophotometric analysis. The format is functional, organism-based.

Calls of active or inactive are those of the source. The rule behind the calls is not given here. Non-standard residues stand in square brackets, D forms with d. Residues, ends and D or L forms follow the SMILES beside them. hArg = N=C(N)NCCCC[C@H](N)C(=O)O; Agb = N=C(N)NCC[C@H](N)C(=O)O; Agp = N=C(N)NC[C@H](N)C(=O)O; Orn = NCCC[C@H](N)C(=O)O; Dab = NCC[C@H](N)C(=O)O; Dap = NC[C@H](N)C(=O)O

For `CC[C@H](C)[C@H](NC(=O)[C@H](CCCNC(=N)N)NC(=O)[C@@H](NC(=O)[C@H](C)NC(=O)[C@@H](NC(=O)[C@@H](NC(=O)[C@H](CC(C)C)NC(=O)[C@H](CCCNC(=N)N)NC(=O)[C@@H](N)C(C)C)[C@@H](C)CC)C(C)C)C(C)C)C(=O)N[C@@H](CNC(=N)N)C(=O)N[C@@H](CCCNC(=N)N)C(=O)N[C@@H](CCCNC(=N)N)C(N)=O` (H-VRLIVAVRI[Agp]RR-NH2), in assay [1], the “residual biofilm growth (% of control)” value was determined as 102.9%. Further, the inhibition result in assay [2] is “Dose-dependent effect”. Also, in assay [3], the outcome was Active.

As to `CC[C@H](C)[C@H](NC(=O)[C@H](CCCNC(=N)N)NC(=O)[C@@H](NC(=O)[C@H](C)NC(=O)[C@@H](NC(=O)[C@@H](NC(=O)[C@H](CC(C)C)NC(=O)[C@H](CCCNC(=N)N)NC(=O)[C@@H](N)C(C)C)[C@@H](C)CC)C(C)C)C(C)C)C(=O)N[C@@H](CCN)C(=O)N[C@@H](CCCNC(=N)N)C(=O)N[C@@H](CCCNC(=N)N)C(N)=O` (H-VRLIVAVRI[Dab]RR-NH2), the “residual biofilm growth (% of control)” value in assay [1] is listed as 90.8%. Moreover, the inhibition entry in assay [2] is “Dose-dependent effect”. Moreover, in assay [3], the outcome was Active.

With `CC[C@H](C)[C@H](NC(=O)[C@H](CCCNC(=N)N)NC(=O)[C@@H](NC(=O)[C@H](C)NC(=O)[C@@H](NC(=O)[C@@H](NC(=O)[C@H](CC(C)C)NC(=O)[C@H](CCCNC(=N)N)NC(=O)[C@@H](N)C(C)C)[C@@H](C)CC)C(C)C)C(C)C)C(=O)N[C@@H](CN)C(=O)N[C@@H](CCCNC(=N)N)C(=O)N[C@@H](CCCNC(=N)N)C(N)=O` (H-VRLIVAVRI[Dap]RR-NH2), the “residual biofilm growth (% of control)” value in assay [1] is on record as 15%. In addition, the inhibition result in assay [2] is “Dose-dependent effect”. In assay [3], the outcome was Active.

With `CC[C@H](C)[C@H](NC(=O)[C@H](CCCNC(=N)N)NC(=O)[C@@H](NC(=O)[C@H](C)NC(=O)[C@@H](NC(=O)[C@@H](NC(=O)[C@H](CC(C)C)NC(=O)[C@H](CCCNC(=N)N)NC(=O)[C@@H](N)C(C)C)[C@@H](C)CC)C(C)C)C(C)C)C(=O)N[C@@H](CCCN)C(=O)N[C@@H](CCCNC(=N)N)C(=O)N[C@@H](CCCNC(=N)N)C(N)=O` (H-VRLIVAVRI[Orn]RR-NH2), in assay [1], the “residual biofilm growth (% of control)” value came out at 39.3%. The inhibition result in assay [2] was “Dose-dependent effect”. In assay [3], the result was Active.

On to `CC[C@H](C)[C@H](NC(=O)[C@H](CCCNC(=N)N)NC(=O)[C@@H](NC(=O)[C@H](C)NC(=O)[C@@H](NC(=O)[C@@H](NC(=O)[C@H](CC(C)C)NC(=O)[C@H](CCCNC(=N)N)NC(=O)[C@@H](N)C(C)C)[C@@H](C)CC)C(C)C)C(C)C)C(=O)N[C@@H](CCCCNC(=N)N)C(=O)N[C@@H](CCCNC(=N)N)C(=O)N[C@@H](CCCNC(=N)N)C(N)=O` (H-VRLIVAVRI[hArg]RR-NH2), for which the “residual biofilm growth (% of control)” value in assay [1] was 37.2%. Also, in assay [2], the inhibition result was “Dose-dependent effect”. Further, in assay [3], the result was Active.

Consider `CC[C@H](C)[C@H](NC(=O)[C@H](CC(C)C)NC(=O)[C@H](CCCNC(=N)N)NC(=O)[C@@H](N)C(C)C)C(=O)N[C@H](C(=O)N[C@@H](C)C(=O)N[C@H](C(=O)N[C@@H](CCCNC(=N)N)C(=O)N[C@@H](CCNC(=N)N)C(=O)N[C@@H](Cc1c[nH]c2ccccc12)C(=O)N[C@@H](CCCNC(=N)N)C(=O)N[C@@H](CCCNC(=N)N)C(N)=O)C(C)C)C(C)C` (H-VRLIVAVR[Agb]WRR-NH2), for which, in assay [1], the “residual biofilm growth (% of control)” value was 103.6%. In addition, in assay [2], the inhibition entry is “Dose-dependent effect”. Moreover, the result in assay [3] was Active.

For `CC[C@H](C)[C@H](NC(=O)[C@H](CC(C)C)NC(=O)[C@H](CCCNC(=N)N)NC(=O)[C@@H](N)C(C)C)C(=O)N[C@H](C(=O)N[C@@H](C)C(=O)N[C@H](C(=O)N[C@@H](CCCNC(=N)N)C(=O)N[C@@H](CNC(=N)N)C(=O)N[C@@H](Cc1c[nH]c2ccccc12)C(=O)N[C@@H](CCCNC(=N)N)C(=O)N[C@@H](CCCNC(=N)N)C(N)=O)C(C)C)C(C)C` (H-VRLIVAVR[Agp]WRR-NH2), the “residual biofilm growth (% of control)” value in assay [1] is 104.1%. For the same compound, the inhibition result in assay [2] is “Dose-dependent effect”. In addition, the outcome in assay [3] was Active.

On to `CC[C@H](C)[C@H](NC(=O)[C@H](CC(C)C)NC(=O)[C@H](CCCNC(=N)N)NC(=O)[C@@H](N)C(C)C)C(=O)N[C@H](C(=O)N[C@@H](C)C(=O)N[C@H](C(=O)N[C@@H](CCCNC(=N)N)C(=O)N[C@@H](CCN)C(=O)N[C@@H](Cc1c[nH]c2ccccc12)C(=O)N[C@@H](CCCNC(=N)N)C(=O)N[C@@H](CCCNC(=N)N)C(N)=O)C(C)C)C(C)C` (H-VRLIVAVR[Dab]WRR-NH2), for which the “residual biofilm growth (% of control)” value in assay [1] is listed as 102%. Besides, the inhibition result in assay [2] was “Dose-dependent effect”. Also, the outcome in assay [3] was Active.

On to `CC[C@H](C)[C@H](NC(=O)[C@H](CC(C)C)NC(=O)[C@H](CCCNC(=N)N)NC(=O)[C@@H](N)C(C)C)C(=O)N[C@H](C(=O)N[C@@H](C)C(=O)N[C@H](C(=O)N[C@@H](CCCNC(=N)N)C(=O)N[C@@H](CN)C(=O)N[C@@H](Cc1c[nH]c2ccccc12)C(=O)N[C@@H](CCCNC(=N)N)C(=O)N[C@@H](CCCNC(=N)N)C(N)=O)C(C)C)C(C)C` (H-VRLIVAVR[Dap]WRR-NH2), for which the “residual biofilm growth (% of control)” value in assay [1] was 51.8%. Further, the inhibition result in assay [2] is “Dose-dependent effect”. Besides, in assay [3], the outcome was Active.

Take `CC[C@H](C)[C@H](NC(=O)[C@H](CC(C)C)NC(=O)[C@H](CCCNC(=N)N)NC(=O)[C@@H](N)C(C)C)C(=O)N[C@H](C(=O)N[C@@H](C)C(=O)N[C@H](C(=O)N[C@@H](CCCNC(=N)N)C(=O)N[C@@H](CCCN)C(=O)N[C@@H](Cc1c[nH]c2ccccc12)C(=O)N[C@@H](CCCNC(=N)N)C(=O)N[C@@H](CCCNC(=N)N)C(N)=O)C(C)C)C(C)C` (H-VRLIVAVR[Orn]WRR-NH2): the “residual biofilm growth (% of control)” value in assay [1] worked out at 79.3%. Also, the inhibition result in assay [2] was “Dose-dependent effect”. In assay [3], the result was Active.

In the case of `CC[C@H](C)[C@H](NC(=O)[C@H](CC(C)C)NC(=O)[C@H](CCCNC(=N)N)NC(=O)[C@@H](N)C(C)C)C(=O)N[C@H](C(=O)N[C@@H](C)C(=O)N[C@H](C(=O)N[C@@H](CCCNC(=N)N)C(=O)N[C@@H](CCCCNC(=N)N)C(=O)N[C@@H](Cc1c[nH]c2ccccc12)C(=O)N[C@@H](CCCNC(=N)N)C(=O)N[C@@H](CCCNC(=N)N)C(N)=O)C(C)C)C(C)C` (H-VRLIVAVR[hArg]WRR-NH2), the “residual biofilm growth (% of control)” value in assay [1] was found to be 84.7%. The inhibition entry in assay [2] is “Dose-dependent effect”. Also, the outcome in assay [3] was Active.

For `CC[C@H](C)[C@H](NC(=O)[C@H](CCNC(=N)N)NC(=O)[C@@H](NC(=O)[C@H](C)NC(=O)[C@@H](NC(=O)[C@@H](NC(=O)[C@H](CC(C)C)NC(=O)[C@H](CCCNC(=N)N)NC(=O)[C@@H](N)C(C)C)[C@@H](C)CC)C(C)C)C(C)C)C(=O)N[C@@H](Cc1c[nH]c2ccccc12)C(=O)N[C@@H](CCCNC(=N)N)C(=O)N[C@@H](CCCNC(=N)N)C(N)=O` (H-VRLIVAV[Agb]IWRR-NH2), the “residual biofilm growth (% of control)” value in assay [1] is on record as 103.5%. In assay [2], the inhibition result was “Dose-dependent effect”. Besides, the result in assay [3] was Active.

In the case of `CC[C@H](C)[C@H](NC(=O)[C@H](CNC(=N)N)NC(=O)[C@@H](NC(=O)[C@H](C)NC(=O)[C@@H](NC(=O)[C@@H](NC(=O)[C@H](CC(C)C)NC(=O)[C@H](CCCNC(=N)N)NC(=O)[C@@H](N)C(C)C)[C@@H](C)CC)C(C)C)C(C)C)C(=O)N[C@@H](Cc1c[nH]c2ccccc12)C(=O)N[C@@H](CCCNC(=N)N)C(=O)N[C@@H](CCCNC(=N)N)C(N)=O` (H-VRLIVAV[Agp]IWRR-NH2), the “residual biofilm growth (% of control)” value in assay [1] came to 102.2%. For the same compound, the inhibition result in assay [2] was “Dose-dependent effect”. Also, in assay [3], the result was Active.

Turning to `CC[C@H](C)[C@H](NC(=O)[C@H](CCN)NC(=O)[C@@H](NC(=O)[C@H](C)NC(=O)[C@@H](NC(=O)[C@@H](NC(=O)[C@H](CC(C)C)NC(=O)[C@H](CCCNC(=N)N)NC(=O)[C@@H](N)C(C)C)[C@@H](C)CC)C(C)C)C(C)C)C(=O)N[C@@H](Cc1c[nH]c2ccccc12)C(=O)N[C@@H](CCCNC(=N)N)C(=O)N[C@@H](CCCNC(=N)N)C(N)=O` (H-VRLIVAV[Dab]IWRR-NH2), the “residual biofilm growth (% of control)” value in assay [1] is listed as 103.9%. The inhibition entry in assay [2] was “Dose-dependent effect”. Also, the result in assay [3] was Active.

Turning to `CC[C@H](C)[C@H](NC(=O)[C@H](CN)NC(=O)[C@@H](NC(=O)[C@H](C)NC(=O)[C@@H](NC(=O)[C@@H](NC(=O)[C@H](CC(C)C)NC(=O)[C@H](CCCNC(=N)N)NC(=O)[C@@H](N)C(C)C)[C@@H](C)CC)C(C)C)C(C)C)C(=O)N[C@@H](Cc1c[nH]c2ccccc12)C(=O)N[C@@H](CCCNC(=N)N)C(=O)N[C@@H](CCCNC(=N)N)C(N)=O` (H-VRLIVAV[Dap]IWRR-NH2), the “residual biofilm growth (% of control)” value in assay [1] was found to be 26.8%. The inhibition entry in assay [2] was “Dose-dependent effect”. For the same compound, the result in assay [3] was Active.

As for `CC[C@H](C)[C@H](NC(=O)[C@H](CCCN)NC(=O)[C@@H](NC(=O)[C@H](C)NC(=O)[C@@H](NC(=O)[C@@H](NC(=O)[C@H](CC(C)C)NC(=O)[C@H](CCCNC(=N)N)NC(=O)[C@@H](N)C(C)C)[C@@H](C)CC)C(C)C)C(C)C)C(=O)N[C@@H](Cc1c[nH]c2ccccc12)C(=O)N[C@@H](CCCNC(=N)N)C(=O)N[C@@H](CCCNC(=N)N)C(N)=O` (H-VRLIVAV[Orn]IWRR-NH2), the “residual biofilm growth (% of control)” value in assay [1] came to 14%. Further, in assay [2], the inhibition result was “Dose-dependent effect”. In addition, in assay [3], the result was Active.

Regarding `CC[C@H](C)[C@H](NC(=O)[C@H](CCCCNC(=N)N)NC(=O)[C@@H](NC(=O)[C@H](C)NC(=O)[C@@H](NC(=O)[C@@H](NC(=O)[C@H](CC(C)C)NC(=O)[C@H](CCCNC(=N)N)NC(=O)[C@@H](N)C(C)C)[C@@H](C)CC)C(C)C)C(C)C)C(=O)N[C@@H](Cc1c[nH]c2ccccc12)C(=O)N[C@@H](CCCNC(=N)N)C(=O)N[C@@H](CCCNC(=N)N)C(N)=O` (H-VRLIVAV[hArg]IWRR-NH2), the “residual biofilm growth (% of control)” value in assay [1] is 26.3%. The inhibition entry in assay [2] was “Dose-dependent effect”. The result in assay [3] was Active.
